Values after ≈ are worked out from the molar mass of the structure shown.
Legend:
Type in all cases: functional
[1] = test system: Spodoptera frugiperda; assay: Effect on feeding preference of third instar larvae of Spodoptera frugiperda assessed as food consumption at 100 ppm administered through larval diet by feeding election test relative to control
[2] = test system: Spodoptera frugiperda; assay: Insecticidal activity against third instar larvae of Spodoptera frugiperda assessed as malformation and mortality at 100 ppm administered through larval diet
[3] = test system: Staphylococcus aureus; assay: Antibacterial activity against methicillin-resistant Staphylococcus aureus F7 after 24 hrs by broth microdilution method
[4] = test system: Staphylococcus aureus; assay: Antibacterial activity against Staphylococcus aureus ATCC 6538P after 24 hrs by broth microdilution method

Q: How did the Activity [1] turn out when `C=C[C@@]1(C)CC[C@@H]2[C@@]3(C)CCC[C@@](C)(CO[C@@H]4OC[C@H](O)[C@H](O)[C@H]4O)[C@@H]3CC[C@@]2(C)O1` was run?
A: 1

Q: What about the Activity [2] of the same compound?
A: 80%

Q: What about the MIC [3] of the same compound?
A: 1250 µg/mL (≈ 2.85 mM)

Q: And the MIC [4]?
A: 2000 µg/mL (≈ 4.56 mM)
